From US20230233569A1 (Revolution Medicines, Inc., priority 2020, published 2023)

How the values were obtained:
Assay in all cases: Ras-Raf disruption / FRET / MOA assay (BRAF RBD)
Assay type in all cases: biochemical
KRAS G12C = KRAS G12C (Homo sapiens, UniProt P01116+P62937, G12C); settings: Ras-Raf disruption, with Cyclophilin A; read-out: KRAS G12C FRET data IC50
In short: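 TR-FRET read-out after 1.5 h with anti-His Eu-W1024 (10 nM) and anti-GST APC (50 nM), following 3 h at 25 °C of compound (top 30 μM, 3-fold, 10 points) with 25 μM Cyclophilin A, 12.5 nM GMPPNP-loaded K-Ras G12C and 50 nM BRAF RBD; IC50 reported.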

KRAS G13C = KRAS G13C (Homo sapiens, UniProt P01116+P62937, G13C); settings: Ras-Raf disruption, with Cyclophilin A; read-out: KRAS G13C FRET data IC50
In short: (§1)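 Compound-induced Ras–Cyclophilin A ternary complex disrupting BRAF RBD binding, read as IC50 from reduced TR-FRET ratio relative to DMSO. Final: Ras-GMPPNP 12.5 nM, BRAF RBD 50 nM, Cyclophilin A 25 μM, top compound 30 μM (3-fold, 10 points); 3 h at 25 °C, then 1.5 h with detection antibodies.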

KRAS G12D = KRAS G12D (Homo sapiens, UniProt P01116+P62937, G12D); settings: Ras-Raf disruption, with Cyclophilin A; read-out: KRAS G12D FRET data IC50
In short: as §1

KRAS WT = KRAS WT (Homo sapiens, UniProt P01116+P62937); settings: Ras-Raf disruption, with Cyclophilin A; read-out: KRAS WT FRET data IC50
In short: as §1

NRAS Q61K = NRAS Q61K (Homo sapiens, UniProt P01111+P62937, Q61K); settings: NRAS Q61K; read-out: NRAS Q61K FRET data IC50
In short: as §1

KRAS Q61H = KRAS Q61H (Homo sapiens, UniProt P01116+P62937, Q61H); settings: KRAS Q61H; read-out: KRAS Q61H FRET data IC50
In short: as §1

KRAS G12V = KRAS G12V (Homo sapiens, UniProt P01116+P62937, G12V); settings: Ras-Raf disruption, with Cyclophilin A; read-out: KRAS G12V FRET data IC50
In short: as §1

NRAS G12C = NRAS G12C (Homo sapiens, UniProt P01111+P62937, G12C); settings: NRAS G12C; read-out: NRAS G12C FRET data IC50
In short: as §1

NRAS Q61R = NRAS Q61R (Homo sapiens, UniProt P01111+P62937, Q61R); settings: NRAS Q61R; read-out: NRAS Q61R FRET data IC50
In short: as §1

NRAS WT = NRAS WT (Homo sapiens, UniProt P01111+P62937); settings: NRAS WT; read-out: NRAS WT FRET data IC50
In short: as §1

KRAS G13D = KRAS G13D (Homo sapiens, UniProt P01116+P62937, G13D); settings: Ras-Raf disruption, with Cyclophilin A; read-out: KRAS G13D FRET data IC50
In short: as §1

KRAS G12S = KRAS G12S (Homo sapiens, UniProt P01116+P62937, G12S); settings: Ras-Raf disruption, with Cyclophilin A; read-out: KRAS G12S FRET data IC50
In short: as §1

Chain of KRAS G13C (P01116 1-169 isoform P01116-2 G13C limits assumed): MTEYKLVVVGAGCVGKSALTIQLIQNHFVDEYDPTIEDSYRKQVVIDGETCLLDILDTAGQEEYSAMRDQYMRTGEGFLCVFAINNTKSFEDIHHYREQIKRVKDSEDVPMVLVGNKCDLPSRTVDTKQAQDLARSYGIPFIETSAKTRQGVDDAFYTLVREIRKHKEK
Chain of KRAS G13C (P62937 whole entry): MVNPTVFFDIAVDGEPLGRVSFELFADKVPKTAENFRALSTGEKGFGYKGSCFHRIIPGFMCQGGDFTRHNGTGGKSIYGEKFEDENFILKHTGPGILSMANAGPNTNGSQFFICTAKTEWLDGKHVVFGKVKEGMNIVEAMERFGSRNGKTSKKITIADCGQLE
Chain of KRAS G13D (P01116 1-169 isoform P01116-2 G13D limits assumed): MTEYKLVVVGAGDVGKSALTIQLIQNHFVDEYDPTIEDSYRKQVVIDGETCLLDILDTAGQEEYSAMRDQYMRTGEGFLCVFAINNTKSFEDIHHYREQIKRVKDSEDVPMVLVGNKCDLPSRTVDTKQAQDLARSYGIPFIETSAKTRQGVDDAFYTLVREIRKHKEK
Chain of KRAS G13D (P62937 whole entry): as the sequence (P62937 whole entry) above
Chain of KRAS G12S (P01116 1-169 isoform P01116-2 G12S limits assumed): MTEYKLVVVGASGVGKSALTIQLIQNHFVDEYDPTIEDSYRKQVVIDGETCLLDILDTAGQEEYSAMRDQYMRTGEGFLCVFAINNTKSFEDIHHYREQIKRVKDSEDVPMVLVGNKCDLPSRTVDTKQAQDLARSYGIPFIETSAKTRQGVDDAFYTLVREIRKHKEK
Chain of KRAS G12S (P62937 whole entry): as the sequence (P62937 whole entry) above
Chain of NRAS Q61K (P01111 whole entry Q61K): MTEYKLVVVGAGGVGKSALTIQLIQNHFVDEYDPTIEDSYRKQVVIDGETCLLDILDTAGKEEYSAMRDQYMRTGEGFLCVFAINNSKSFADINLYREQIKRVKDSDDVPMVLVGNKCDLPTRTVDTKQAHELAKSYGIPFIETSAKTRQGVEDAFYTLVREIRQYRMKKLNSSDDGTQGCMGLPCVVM
Chain of NRAS Q61K (P62937 whole entry): as the sequence (P62937 whole entry) above
Chain of KRAS G12D (P01116 1-169 isoform P01116-2 G12D limits assumed): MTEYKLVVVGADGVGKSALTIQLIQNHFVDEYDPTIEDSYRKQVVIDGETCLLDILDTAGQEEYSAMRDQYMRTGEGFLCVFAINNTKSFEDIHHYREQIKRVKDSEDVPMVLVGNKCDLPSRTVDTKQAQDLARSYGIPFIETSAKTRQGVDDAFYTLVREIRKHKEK
Chain of KRAS G12D (P62937 whole entry): as the sequence (P62937 whole entry) above
Chain of KRAS Q61H (P01116 1-169 isoform P01116-2 Q61H limits assumed): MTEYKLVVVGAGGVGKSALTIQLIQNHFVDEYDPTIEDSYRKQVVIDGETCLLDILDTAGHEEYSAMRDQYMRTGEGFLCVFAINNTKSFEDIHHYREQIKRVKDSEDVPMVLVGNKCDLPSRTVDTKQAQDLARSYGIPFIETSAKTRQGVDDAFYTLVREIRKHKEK
Chain of KRAS Q61H (P62937 whole entry): as the sequence (P62937 whole entry) above
Chain of NRAS G12C (P01111 whole entry G12C): as the sequence (P01111 whole entry Q61K) above, with G12C, K61Q counted along it
Chain of NRAS G12C (P62937 whole entry): as the sequence (P62937 whole entry) above
Chain of KRAS G12C (P01116 1-169 isoform P01116-2 G12C limits assumed): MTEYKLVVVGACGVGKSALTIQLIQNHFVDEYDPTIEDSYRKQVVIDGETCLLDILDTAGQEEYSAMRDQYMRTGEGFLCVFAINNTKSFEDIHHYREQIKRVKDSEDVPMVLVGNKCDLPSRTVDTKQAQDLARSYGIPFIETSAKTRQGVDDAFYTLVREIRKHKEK
Chain of KRAS G12C (P62937 whole entry): as the sequence (P62937 whole entry) above
Chain of NRAS Q61R (P01111 whole entry Q61R): as the sequence (P01111 whole entry Q61K) above, with K61R counted along it
Chain of NRAS Q61R (P62937 whole entry): as the sequence (P62937 whole entry) above
Chain of KRAS G12V (P01116 1-169 isoform P01116-2 G12V limits assumed): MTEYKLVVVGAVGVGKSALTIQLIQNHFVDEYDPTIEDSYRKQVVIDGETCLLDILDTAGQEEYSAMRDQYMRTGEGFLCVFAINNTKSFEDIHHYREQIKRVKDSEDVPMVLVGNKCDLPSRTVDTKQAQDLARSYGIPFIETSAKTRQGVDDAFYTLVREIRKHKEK
Chain of KRAS G12V (P62937 whole entry): as the sequence (P62937 whole entry) above
Chain of KRAS WT (P01116 1-169 isoform P01116-2 limits assumed): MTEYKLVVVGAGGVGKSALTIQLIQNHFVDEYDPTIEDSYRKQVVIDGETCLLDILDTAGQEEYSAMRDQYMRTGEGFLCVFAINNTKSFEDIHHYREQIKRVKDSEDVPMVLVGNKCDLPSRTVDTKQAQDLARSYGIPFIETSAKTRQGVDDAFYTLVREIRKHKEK
Chain of KRAS WT (P62937 whole entry): as the sequence (P62937 whole entry) above
Chain of NRAS WT (P01111 whole entry): as the sequence (P01111 whole entry Q61K) above, with K61Q counted along it
Chain of NRAS WT (P62937 whole entry): as the sequence (P62937 whole entry) above

CCn1c(-c2cccnc2[C@H](C)OC)c2c3cc(ccc31)-c1cc(O)cc(c1)C[C@H](NC(=O)[C@H](C(C)C)N(C)C(=O)[C@H]1CCCCN(C(=O)[C@H]3CN3)C1)C(=O)N1CCC[C@H](N1)C(=O)OCC(C)(C)C2 (atropisomer, axis not shown) [Example 247]
IC50 (KRAS G12C): 10 to 100 nM | IC50 (KRAS G13C): 100 to 1000 nM | IC50 (KRAS G12D): 1000 to 10000 nM | IC50 (KRAS WT): 100 to 1000 nM | IC50 (NRAS Q61K): 1000 to 10000 nM | IC50 (KRAS Q61H): 100 to 1000 nM | IC50 (KRAS G12V): 100 to 1000 nM | IC50 (NRAS G12C): 10 to 100 nM | IC50 (NRAS Q61R): 1000 to 10000 nM | IC50 (NRAS WT): 100 to 1000 nM | IC50 (KRAS G13D): 100 to 1000 nM | IC50 (KRAS G12S): 100 to 1000 nM

CCn1c(-c2cccnc2[C@H](C)OC)c2c3cc(ccc31)-c1cc(O)cc(c1)C[C@H](NC(=O)[C@H](C(C)C)N(C)C(=O)N1C[C@@H]3[C@H]1CCN3C(=O)[C@H]1CN1)C(=O)N1CCC[C@H](N1)C(=O)OCC(C)(C)C2 (atropisomer, axis not shown) [Example 250]
IC50 (KRAS G12C): 10 to 100 nM | IC50 (KRAS G13C): 100 to 1000 nM | IC50 (KRAS G12D): 1000 to 10000 nM | IC50 (KRAS WT): 100 to 1000 nM | IC50 (NRAS Q61K): 1000 to 10000 nM | IC50 (KRAS Q61H): 100 to 1000 nM | IC50 (KRAS G12V): 100 to 1000 nM | IC50 (NRAS G12C): 100 to 1000 nM | IC50 (NRAS Q61R): 1000 to 10000 nM | IC50 (NRAS WT): 100 to 1000 nM | IC50 (KRAS G13D): 1000 to 10000 nM | IC50 (KRAS G12S): 100 to 1000 nM

CCn1c(-c2cccnc2[C@H](C)OC)c2c3cc(ccc31)-c1cc(O)cc(c1)C[C@H](NC(=O)[C@H](C(C)C)N(C)C(=O)N1C[C@@H]3[C@H]1CCN3C(=O)[C@@H]1CN1)C(=O)N1CCC[C@H](N1)C(=O)OCC(C)(C)C2 (atropisomer, axis not shown) [Example 251]
IC50 (KRAS G12C): 10 to 100 nM | IC50 (KRAS G13C): 10 to 100 nM | IC50 (KRAS G12D): 1000 to 10000 nM | IC50 (KRAS WT): 100 to 1000 nM | IC50 (NRAS Q61K): 1000 to 10000 nM | IC50 (KRAS Q61H): 100 to 1000 nM | IC50 (KRAS G12V): 100 to 1000 nM | IC50 (NRAS G12C): 10 to 100 nM | IC50 (NRAS Q61R): 1000 to 10000 nM | IC50 (NRAS WT): 100 to 1000 nM | IC50 (KRAS G13D): 1000 to 10000 nM | IC50 (KRAS G12S): 100 to 1000 nM

CCn1c(-c2cccnc2[C@H](C)OC)c2c3cc(ccc31)-c1cc(O)cc(c1)C[C@H](NC(=O)[C@H](C(C)C)N(C)C(=O)N1CC[C@@H](N(C)C(=O)[C@H]3CN3)C1)C(=O)N1CCC[C@H](N1)C(=O)OCC(C)(C)C2 (atropisomer, axis not shown) [Example 252]
IC50 (KRAS G12C): < 10 nM | IC50 (KRAS G13C): 10 to 100 nM | IC50 (KRAS G12D): 100 to 1000 nM | IC50 (KRAS WT): 10 to 100 nM | IC50 (NRAS Q61K): 100 to 1000 nM | IC50 (KRAS Q61H): 10 to 100 nM | IC50 (KRAS G12V): 100 to 1000 nM | IC50 (NRAS G12C): < 10 nM | IC50 (NRAS Q61R): 100 to 1000 nM | IC50 (NRAS WT): 10 to 100 nM | IC50 (KRAS G13D): 100 to 1000 nM | IC50 (KRAS G12S): 100 to 1000 nM

CCn1c(-c2cccnc2[C@H](C)OC)c2c3cc(ccc31)-c1cc(O)cc(c1)C[C@H](NC(=O)[C@H](C(C)C)N(C)C(=O)N1CC[C@@H](N(C)C(=O)[C@@H]3CN3)C1)C(=O)N1CCC[C@H](N1)C(=O)OCC(C)(C)C2 (atropisomer, axis not shown) [Example 253]
IC50 (KRAS G12C): 10 to 100 nM | IC50 (KRAS G13C): 10 to 100 nM | IC50 (KRAS G12D): 100 to 1000 nM | IC50 (KRAS WT): 10 to 100 nM | IC50 (NRAS Q61K): 100 to 1000 nM | IC50 (KRAS Q61H): 10 to 100 nM | IC50 (KRAS G12V): 100 to 1000 nM | IC50 (NRAS G12C): 10 to 100 nM | IC50 (NRAS Q61R): 100 to 1000 nM | IC50 (NRAS WT): 10 to 100 nM | IC50 (KRAS G13D): 100 to 1000 nM | IC50 (KRAS G12S): 100 to 1000 nM

CCn1c(-c2cccnc2[C@H](C)OC)c2c3cc(ccc31)-c1cc(O)cc(c1)C[C@H](NC(=O)[C@H](C(C)C)N(C)C(=O)N1CC[C@H](N(C)C(=O)[C@H]3CN3)C1)C(=O)N1CCC[C@H](N1)C(=O)OCC(C)(C)C2 (atropisomer, axis not shown) [Example 254]
IC50 (KRAS G12C): 10 to 100 nM | IC50 (KRAS G13C): 10 to 100 nM | IC50 (KRAS G12D): 100 to 1000 nM | IC50 (KRAS WT): 100 to 1000 nM | IC50 (NRAS Q61K): 100 to 1000 nM | IC50 (KRAS Q61H): 10 to 100 nM | IC50 (KRAS G12V): 100 to 1000 nM | IC50 (NRAS G12C): 10 to 100 nM | IC50 (NRAS Q61R): 100 to 1000 nM | IC50 (NRAS WT): 100 to 1000 nM | IC50 (KRAS G13D): 100 to 1000 nM | IC50 (KRAS G12S): 100 to 1000 nM
